Test results reported in patent US9096524B2, “Anthelmintic agents and their use” (Intervet International B.V., priority 2009, dated 2015).
Where two headings read alike, the source gives them in different places.

System: A. galli (intestinal roundworm of chicken) larval stage 3; O. dentatum (nodular worm of swine) larval stages 3 and 4
Assay: Activity against Ascaridia galli and Oesophagostomum dentatum larvae in vitro (minimum effective concentration)
Format: cell-based
[1] = in vitro, one or more of A. galli L3, O. dentatum L3, L4, threshold 7 μM, read-out: MEC (minimum effective concentration) against one or more of the tested nematodes
[2] = read-out: MEC (minimum effective concentration) against one or more of the tested nematodes, in vitro, one or more of A. galli L3, O. dentatum L3, L4, threshold 1 μM
[3] = read-out: MEC (minimum effective concentration) against one or more of the tested nematodes, in vitro, one or more of A. galli L3, O. dentatum L3, L4, threshold 7 μM
[4] = read-out: MEC (minimum effective concentration) against two or more of the tested nematodes, in vitro, two or more of A. galli L3, O. dentatum L3, L4, threshold 1 μM
[5] = in vitro, one or more of A. galli L3, O. dentatum L3, L4, threshold 1 μM, read-out: MEC (minimum effective concentration) against one or more of the tested nematodes
[6] = in vitro, two or more of A. galli L3, O. dentatum L3, L4, threshold 1 μM, read-out: MEC (minimum effective concentration) against two or more of the tested nematodes

SMILES	minimal effective concentration [5] [µM]	minimal effective concentration [6] [µM]	further results
CC(C)(C)c1ccc(N2CCN(CCC(=O)N3CCCN(c4ccc([N+](=O)[O-])c(C(F)(F)F)c4)CC3)CC2)cc1 [Example 998]	–	–	minimal effective concentration [1]: < 7 µM
CC(C)(C)c1ccc(N2CCCN(CCCC(=O)N3CCC(Nc4ccc([N+](=O)[O-])c(C(F)(F)F)c4)CC3)CC2)cc1 [Example 163, 4-[4-(4-tert-butyl-phenyl)-[1,4]diazepan-1-yl]-1-[4-(4-nitro-3-trifluoromethyl-phenylamino)-piperidin-1-yl]-butan-1-one]	–	–	minimal effective concentration [2]: < 1 µM; minimal effective concentration [3]: < 7 µM; minimal effective concentration [4]: < 1 µM
O=C(CCN1CCN(c2cccc(Cl)c2)CC1)NC1CCN(c2ccc(C(F)(F)F)cn2)CC1 [Example 640]	< 1	–	–
O=C(CCCN1CCN(c2ccc(C(F)(F)F)cc2)CC1)N1CCCN(c2ccc(C(F)(F)F)cn2)CC1 [Example 1014]	< 1	–	–
CC(N1CCN(c2ccc(Cl)cc2)CC1)C(C)(C)C(=O)N1CCC(Nc2ccc([N+](=O)[O-])c(C(F)(F)F)c2)CC1 (stereo not drawn) [Example 586]	–	< 1	–
CC(C)(C)c1ccc(N2CCN(CCCC(=O)N3CC[C@@H](Nc4ccc([N+](=O)[O-])c(C(F)(F)F)c4)C3)CC2)cc1 [Example 168, 4-[4-(4-tert-butyl-phenyl)-piperazin-1-yl]-1-[(R)-3-(4-nitro-3-trifluoromethyl-phenylamino)-pyrrolidin-1-yl]-butan-1-one]	–	–	minimal effective concentration [2]: < 1 µM; minimal effective concentration [3]: < 7 µM; minimal effective concentration [4]: < 1 µM
O=C(CCCN1CCN(c2ccc(Cl)cc2)CC1)N1CCC(Oc2ccc([N+](=O)[O-])c(C(F)(F)F)c2)CC1 [Example 259]	< 1	–	–
CCOc1cc(OC2CCN(C(=O)CCN3CCN(c4ccc(OCc5ccc(C(F)(F)F)cc5)cc4)CC3)CC2)ccc1[N+](=O)[O-] [Example 497]	–	–	minimal effective concentration [1]: < 7 µM
CC(C)COc1cc(OC2CCN(C(=O)CCN3CCN(c4ccc(Cl)cc4)CC3)CC2)ccc1[N+](=O)[O-] [Example 512]	–	–	minimal effective concentration [1]: < 7 µM
N#Cc1ccc(NC2CCN(C(=O)CCCN3CCN(c4ccc(C(F)(F)F)cc4)CC3)CC2)cc1 [Example 83, 4-(1-{4-[4-(4-trifluoromethyl-phenyl)-piperazin-1-yl]-butyryl}-piperidin-4-ylamino)-benzonitrile]	–	–	minimal effective concentration [2]: < 1 µM; minimal effective concentration [3]: < 7 µM; minimal effective concentration [4]: < 1 µM
CCCc1ccc(C2CCN(CCC(=O)N3CCC(Nc4ccc([N+](=O)[O-])c(OC)c4)CC3)CC2)cc1 [Example 379]	–	–	minimal effective concentration [1]: < 7 µM
CN(CC1CCN(c2ccc(Cl)cc2)CC1)C(=S)N1CCC(Nc2ccc([N+](=O)[O-])c(C(F)(F)F)c2)CC1 [Example 676]	–	< 1	–
COc1cc(NC2CCN(C(=O)CCN3CCC(c4ccc(C(C)(C)C)cc4)CC3)CC2)ccc1[N+](=O)[O-] [Example 380]	< 1	–	minimal effective concentration [1]: < 7 µM
CC(C)COc1cc(NC2CCN(C(=O)CCN3CCC(c4ccc(C(C)(C)C)cc4)CC3)CC2)ccc1[N+](=O)[O-] [Example 457]	–	–	minimal effective concentration [1]: < 7 µM
COc1ccc(N2CCN(CCC(=O)N3CCC(Oc4ccc([N+](=O)[O-])c(OCC(C)C)c4)CC3)CC2)cc1OC [Example 515]	–	–	minimal effective concentration [1]: < 7 µM
O=C(CCCN1CC2CN(c3ccc(C(F)(F)F)cc3)CC2C1)N1CC[C@H](Nc2ccc([N+](=O)[O-])c(C(F)(F)F)c2)C1 (stereo partly drawn) [Example 743]	–	–	minimal effective concentration [1]: < 7 µM
O=C(CCN1CCN(c2ccc(Cl)cc2)CC1)N1CC[C@@H](Nc2ccc([N+](=O)[O-])c(C(F)(F)F)c2)C1 [Example 789]	< 1	< 1	–
CC(C)(C)c1ccc(N2CC3CN(CCC(=O)N4CCC(Nc5ccc([N+](=O)[O-])c(C(F)(F)F)c5)CC4)CC3C2)cc1 (stereo not drawn) [Example 128, 3-[5-(4-tert-butyl-phenyl)-hexahydro-pyrrolo[3,4-c]pyrrol-2-yl]-1-[4-(4-nitro-3-trifluoromethyl-phenylamino)-piperidin-1-yl]-propan-1-one]	–	–	minimal effective concentration [2]: < 1 µM; minimal effective concentration [3]: < 7 µM; minimal effective concentration [4]: < 1 µM
O=C(CCCN1CCN(c2ccc(C(F)(F)F)cc2)CC1)N1CCC(Oc2ccc([N+](=O)[O-])c(C(F)(F)F)c2)CC1 [Example 79, 1-[4-(4-nitro-3-trifluoromethyl-phenoxy)-piperidin-1-yl]-4-[4-(4-trifluoromethyl-phenyl)-piperazin-1-yl]-butan-1-one]	–	–	minimal effective concentration [2]: < 1 µM; minimal effective concentration [3]: < 7 µM; minimal effective concentration [4]: < 1 µM
O=C(CCN1CCN(c2ccc(C(F)(F)F)cc2)CC1)N1CC[C@H](Nc2ccc([N+](=O)[O-])c(C(F)(F)F)c2)C1 [Example 285]	< 1	–	–
O=C(CCN1CCN(c2ccc(Cl)cc2)CC1)N1CCC(Oc2ccc([N+](=O)[O-])c(C(F)(F)F)c2)CC1 [Example 433]	< 1	–	–
O=[N+]([O-])c1ccc(NC2CCN(S(=O)(=O)CCN3CCN(C4CCCCC4)CC3)CC2)cc1C(F)(F)F [Example 248]	–	< 1	–
O=C(CCCN1CCN(c2ccc(C(F)(F)F)cc2)CC1)N1CCC(Nc2ccc(Cl)cc2)CC1 [Example 273]	–	–	minimal effective concentration [4]: < 1 µM
COc1ccc(NC2CCN(C(=O)CCCN3CCN(c4ccc(C(F)(F)F)cc4)CC3)CC2)cc1 [Example 270]	–	< 1	–

SMILES	minimal effective concentration [5] [µM]	minimal effective concentration [6] [µM]	further results
O=C(CCCN1CCN(c2ccc(F)cc2)CC1)N1CCC(Oc2ccc([N+](=O)[O-])c(C(F)(F)F)c2)CC1 [Example 261]	< 1	–	–
O=C(CCCN1CCN(c2ccc(C(F)(F)F)cc2)CC1)N1CCC(Nc2ccc(C(F)(F)F)cc2)CC1 [Example 269]	–	< 1	–
CCOc1cc(OC2CCN(C(=O)CCN3CCN(c4ccc(C(C)(C)C)cc4)CC3)CC2)ccc1[N+](=O)[O-] [Example 502]	< 1	–	minimal effective concentration [1]: < 7 µM
O=[N+]([O-])c1ccc(NC2CCN(C(=S)CCN3CCN(c4ccc(OCc5ccccc5)cc4)CC3)CC2)cc1C(F)(F)F [Example 678]	–	< 1	–
O=C(CCC1CCN(c2cccc(C(F)(F)F)c2)CC1)N1CCC(Nc2ccc([N+](=O)[O-])c(C(F)(F)F)c2)CC1 [Example 215]	< 1	< 1	–
O=C(CCN1CCN(c2ccc(C(F)(F)F)cc2)CC1)N1CCC(Nc2cccc(C(F)(F)F)c2)CC1 [Example 276]	–	< 1	–
N#Cc1ccc(N2CCC(NC(=S)CCCN3CCN(c4ccc(C(F)(F)F)cc4)CC3)CC2)cc1C(F)(F)F [Example 662]	–	< 1	–
O=C(CCN1CCN(c2cccc(OC(F)(F)F)c2)CC1)N1CCC(Nc2ccc([N+](=O)[O-])c(C(F)(F)F)c2)CC1 [Example 191]	–	< 1	–
O=C(CCN1CCN(c2ccc(OCc3ccccc3)cc2)CC1)N1CCC(Oc2ccc([N+](=O)[O-])c(C(F)(F)F)c2)CC1 [Example 423]	–	< 1	–
CCOc1cc(NC2CCN(C(=O)CCN3CCN(c4ccc(Cl)cc4F)CC3)CC2)ccc1[N+](=O)[O-] [Example 410]	–	–	minimal effective concentration [1]: < 7 µM
COc1ccc(N2CCN(CCC(=O)N3CC[C@H](Nc4ccc([N+](=O)[O-])c(C(F)(F)F)c4)C3)CC2)cc1 [Example 289]	< 1	< 1	–
Cc1ccc(N2CCN(CCS(=O)(=O)N3CCC(Nc4ccc([N+](=O)[O-])c(C(F)(F)F)c4)CC3)CC2)cc1 [Example 243]	–	< 1	–
FC(F)(F)Oc1ccc(NC2CCN(C(=S)CCCN3CCN(c4ccc(C(F)(F)F)cc4)CC3)CC2)cc1 [Example 701]	–	< 1	–
CCOc1cc(OC2CCN(C(=O)CCN3CCN(c4ccc(-c5ccccc5)cc4)CC3)CC2)ccc1[N+](=O)[O-] [Example 578]	–	< 1	–
CC(C)(C)c1ccc(N2CCN(C(=O)CC(=O)N3CCC(Nc4ccc([N+](=O)[O-])c(C(F)(F)F)c4)CC3)CC2)cc1 [Example 203]	–	< 1	–
CCOc1cc(OC2CCN(C(=O)CCN3CCN(c4ccc(OC)c(OC)c4)CC3)CC2)ccc1[N+](=O)[O-] [Example 495]	< 1	< 1	minimal effective concentration [1]: < 7 µM
O=C(CCN1CCN(c2ccc(C(F)(F)F)cc2)CC1)N1CCC(Nc2ccc(Cl)cc2)CC1 [Example 282]	–	–	minimal effective concentration [4]: < 1 µM
O=C(CCCN1CCN(c2ccc(Cl)cc2)CC1)N1CC[C@H](Nc2ccc([N+](=O)[O-])c(C(F)(F)F)c2)C1 [Example 731]	< 1	–	–
CCCCC(=O)N1CCC(OCC(=O)N2CCC(Nc3ccc([N+](=O)[O-])c(C(F)(F)F)c3)CC2)CC1 [Example 291]	< 1	–	–
N#Cc1ccc(NC2CCN(C(=O)CCCC3CCN(c4ccc(C(F)(F)F)cc4)CC3)CC2)cc1C(F)(F)F [Example 156, 2-trifluoromethyl-4-(1-{4-[1-(4-trifluoromethyl-phenyl)-piperidin-4-yl]-butyryl}-piperidin-4-ylamino)-benzonitrile]	< 1	< 1	minimal effective concentration [1]: < 7 µM
O=C(CCN1CCN(c2cccc(Cl)c2)CC1)NC1CCN(c2ccc([N+](=O)[O-])c(C(F)(F)F)c2)CC1 [Example 594]	< 1	–	–
N#Cc1ccc(N2CCN(C(=O)CCN3CCC(Nc4ccc([N+](=O)[O-])c(C(F)(F)F)c4)CC3)CC2)cc1 [Example 200]	< 1	–	–
O=C(CCN1CCN(c2ccc(Cl)c(C(F)(F)F)c2)CC1)N1CCC(Oc2ccc([N+](=O)[O-])c(C(F)(F)F)c2)CC1 [Example 218]	–	< 1	–
